From publication PMC9858543, “Design, synthesis and evaluation of 2, 6, 8-substituted Imidazopyridine derivatives as potent PI3Kα inhibitors” (Journal of Enzyme Inhibition and Medicinal Chemistry, 2023)

What was measured:
T47D cells [1] = assay: Cell cycle analysis, PI flow cytometry; format: cell-based, human; conditions: 24 h
Experimental: (§1) Considering compound 35 was most sensitive in T47D cells, we decided to get some mechanistic insight into the mode of action in T47D cell line. As such, the annexin V/7-AAD staining and cell cycle phase distribution have been carried out. […] Furthermore, T47D cells were also treated with different concentrations of 35, and the percentage of apoptotic cells was measured.
(§2) For cell cycle analysis, T47D cell (1 × 10^6) were seeded in 6-well plates overnight and treated with different concentrations of compound 35 and DMSO control on the next day. After 24 h, the cells were collected by EDTA-free trypsinization, centrifuged at 1500 rpm for 5 min, and fixed in 75% ethanol at −20 °C for 1 h. The cells were then centrifuged at 2000 rpm for 5 min, resuspended in 500 µL PI/Rnase Staining Buffer, incubated for 30 min at room temperature, and analysed using flow cytometry. The data were analysed using Modfit software. For cell apoptosis analysis, T47D cell were seeded in 6 well-plates and treated with DMSO or compound 35 for 24 h. The treated cells were collected and washed with cold PBS for three times, resuspended in 185 µL binding buffer containing 5 μL Annexin V-FITC Apoptosis Detection Kit and 10 μL 7-AAD Viability Staining Solution for 15 min at room temperature in the dark. Apoptotic cells were analysed by flow cytometer.

SKOV-3 = assay: Cell proliferation assay (CellTiter-Glo), SKOV-3; format: cell-based; conditions: Homo sapiens, SK-OV-3; 72 h exposure; mean ± SD of two experiments
Experimental: (§3) Given the desirable enzyme activity profile, these compounds were further assayed for their antiproliferative activities against five independent human tumour cell line collections harbouring PIK3CA mutation, including human ovarian cancer cell line SKOV-3, human breast cancer T47D and MCF-7, human lung cancer H1975 and H460. […] In general, the cellular activity of tested derivatives corrected with their effects on kinase activity.
(§4) All target compounds were evaluated for antiproliferative potency against SKOV-3, T47D,NCI-H1975, NCI-H460,and MCF-7 tumour cell lines using a CellTiter-Glo® Luminescent Cell Viability Assay. The human tumour cell lines used were obtained from the ATCC or Shanghai ZhongQiaoXinZhou Biotech. All the mediums and FBS were Gibco. T47D, H1975 and NCI-H460 tumour cells were cultured in RPMI1640 medium supplemented with 10% FBS. SKOV-3 was cultured in McCoy’s 5 A medium supplemented with 10%FBS. The day before treatment with compounds, cells were seeded at a density of 2000 or 5000 in each well of a 96-well plate. The tumour cells were then treated with 3-fold serial diluted compound or DMSO control in the incubator at 37 °C and 5% CO2 for 3 days, prior to the addition of CellTiter-Glo reagents (Promega) and reading of luminescence using a PerkinElmer Envision plate reader. Data were analysed using GraphPad Prism 7.0.

[2] = Liver microsomal stability assay, HLM; format: in vitro ADME, human
Experimental: The metabolic stability of compound 35 was determined in human or SD rat liver microsomes, with and without the NADPH regenerating system. Briefly, compound 35 was incubated with microsomes (human microsome, CORNING, lot No. 38296; rat microsome, Xenotech, Lot No. 2110178) (0.5 mg protein/mL) at 1 μM at 37 °C in potassium phosphate buffer (100 mM at pH 7.4 with 10 mM MgCl2). The reactions were initiated by adding prewarmed cofactors (1 mmol NADPH). After incubation for different times (0, 5, 10, 20, 30, and 60 min) at 37 °C, cold acetonitrile containing 200 ng/mL tolbutamide and 200 ng/mL labetalol as internal standards was added to precipitate the protein. Then, the samples were centrifuged, and the supernatants were transferred into HPLC water, mixed by plate shaker for 10 min prior to LC − MS/MS analysis.

T47D cells [3] = assay: Apoptosis analysis, annexin V/7-AAD flow cytometry; format: cell-based, human; conditions: 50 μM, 24 h
Experimental: as §1, §2

NCI-H1975 = assay: Cell proliferation assay (CellTiter-Glo), NCI-H1975; format: cell-based; conditions: Homo sapiens, 72 h exposure, mean ± SD of two experiments
Experimental: as §3, §4

PI3Kα = target: T1, PI3Kα (Homo sapiens, UniProt P42336); assay: In vitro PI3Kα enzymatic assay (ADP-Glo / Kinase-Glo, ATP 25 μM); format: biochemical; conditions: ATP 25 μM
T1 construct: purchased Invitrogen
T1 sequence (P42336 whole entry): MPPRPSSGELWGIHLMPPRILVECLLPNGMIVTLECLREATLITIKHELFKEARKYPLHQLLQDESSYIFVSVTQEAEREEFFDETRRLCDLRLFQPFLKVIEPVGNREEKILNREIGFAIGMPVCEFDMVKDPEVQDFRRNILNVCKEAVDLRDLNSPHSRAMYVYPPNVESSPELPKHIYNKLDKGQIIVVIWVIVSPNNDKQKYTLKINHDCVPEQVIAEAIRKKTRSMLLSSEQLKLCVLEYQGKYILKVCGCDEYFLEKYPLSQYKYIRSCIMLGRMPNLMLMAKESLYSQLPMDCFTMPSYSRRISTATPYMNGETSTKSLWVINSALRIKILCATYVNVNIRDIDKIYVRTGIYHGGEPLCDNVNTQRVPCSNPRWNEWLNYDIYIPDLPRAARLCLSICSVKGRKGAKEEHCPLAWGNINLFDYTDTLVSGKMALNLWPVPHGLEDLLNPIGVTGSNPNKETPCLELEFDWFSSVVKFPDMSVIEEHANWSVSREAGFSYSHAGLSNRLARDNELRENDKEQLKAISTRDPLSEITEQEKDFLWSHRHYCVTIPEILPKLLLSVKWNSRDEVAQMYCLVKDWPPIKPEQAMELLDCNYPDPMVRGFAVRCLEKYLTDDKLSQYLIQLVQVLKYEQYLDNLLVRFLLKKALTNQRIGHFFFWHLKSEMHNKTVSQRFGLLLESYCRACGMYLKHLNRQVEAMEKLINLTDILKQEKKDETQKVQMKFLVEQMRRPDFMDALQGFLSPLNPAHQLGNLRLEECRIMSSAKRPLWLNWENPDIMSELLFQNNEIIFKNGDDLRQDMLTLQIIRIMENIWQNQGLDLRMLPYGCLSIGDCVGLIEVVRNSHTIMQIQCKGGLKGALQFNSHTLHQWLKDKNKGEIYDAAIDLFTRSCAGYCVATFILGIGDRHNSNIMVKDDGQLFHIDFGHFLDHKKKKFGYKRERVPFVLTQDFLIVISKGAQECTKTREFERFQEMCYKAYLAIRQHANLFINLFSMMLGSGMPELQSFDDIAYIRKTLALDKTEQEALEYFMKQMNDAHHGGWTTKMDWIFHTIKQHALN
T1 sequence (P27986 whole entry partner): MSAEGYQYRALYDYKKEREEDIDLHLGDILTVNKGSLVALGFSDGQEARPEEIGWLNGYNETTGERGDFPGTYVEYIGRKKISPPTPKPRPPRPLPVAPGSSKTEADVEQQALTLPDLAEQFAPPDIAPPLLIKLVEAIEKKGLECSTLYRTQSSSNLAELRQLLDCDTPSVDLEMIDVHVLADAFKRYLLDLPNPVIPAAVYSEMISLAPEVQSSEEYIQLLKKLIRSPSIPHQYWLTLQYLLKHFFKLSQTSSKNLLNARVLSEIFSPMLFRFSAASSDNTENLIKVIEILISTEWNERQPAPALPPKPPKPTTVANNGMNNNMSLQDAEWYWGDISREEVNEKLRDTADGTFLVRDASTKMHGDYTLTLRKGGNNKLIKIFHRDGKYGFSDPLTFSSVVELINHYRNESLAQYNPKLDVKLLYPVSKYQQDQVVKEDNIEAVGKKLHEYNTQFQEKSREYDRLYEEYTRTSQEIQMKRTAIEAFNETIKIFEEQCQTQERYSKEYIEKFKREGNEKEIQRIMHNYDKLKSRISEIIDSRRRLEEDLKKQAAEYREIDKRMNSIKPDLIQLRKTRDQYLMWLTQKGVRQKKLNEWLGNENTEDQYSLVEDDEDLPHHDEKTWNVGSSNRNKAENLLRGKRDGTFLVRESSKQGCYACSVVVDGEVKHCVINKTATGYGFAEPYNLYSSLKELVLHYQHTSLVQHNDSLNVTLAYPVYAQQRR
Experimental: To screen the inhibitory activity of the target compounds against PI3Kα, the Kinase-Glo™ assay with ATP at 25 μM was utilised with PIK-75 as positive control. We chose to explore the SARs at three positions on the Imidazo[1,2-a]pyridine core. To start with, a set of 8-position modifications were prepared while keeping the morpholinyl amide substituent on 2-position fixed, since it allowed quick structure − activity profiling via coupling reactions of bromide with aryl borates or boronic acids. […] We then turned our attention back to the phenyl substituents.
Briefly, the compound, PI3K enzyme (PI3Kα from Invitrogen), the PIP2 (Life Technologies) substrate, and ATP (25 μM, Sigma) were diluted in kinase buffer to the indicated concentrations. The assay plate was covered and incubated at room temperature for 1 h. Then, the Kinase-Glo reagent (Promega) was added to the PI3Kα plate to stop the reaction, mixed briefly with centrifuge, shaken slowly on the shaker and then equilibrate for 120 min. Finally, add Kinase detection reagent to each well, shake 1 min, equilibrate for 30 min before reading on a plate reader for luminescence. The data were collected on Envision and presented in Excel. IC50 values were calculated from the inhibition curves.

For `COc1ncc(-c2cc(C)cn3cc(C(=O)N4CCCC4)nc23)cc1NS(=O)(=O)c1ccc(F)cc1` [Compound 35, 4-Fluoro-N-(2-methoxy-5–(6-methyl-2-(pyrrolidine-1-carbonyl)Imidazo[1,2-a]pyridin-8-yl)pyridin-3-yl)benzenesulfonamide], the cell cycle effect (T47D cells [1]) was “S cell cycle arrest”, the IC50 (SKOV-3) was 26.6 ± 1.3 µM and the “Remaining (T = 60min)” value ([2]; 1 μM, 60 min) was 42.7%. The microsomal CLint at 1 μM ([2]; human, human liver microsomes, pH 7.4, 0.5 mg protein/mL, read-out: Metabolic stability CL int) was 30.7 µL/min/mg, the half-life at 1 μM ([2]; human, human liver microsomes, pH 7.4, 0.5 mg protein/mL, read-out: Metabolic stability T1/2) was 45.1 min and the “Q2 cells (late apoptosis), annexin V/7-AAD” value (T47D cells [3]) was 21.8%. The “Q3 cells (early apoptosis), annexin V/7-AAD” value (T47D cells [3]) was 1.51%, the IC50 (NCI-H1975) was 32.1 ± 2.4 µM and the IC50 (PI3Kα; mean ± SD of two experiments) was 0.15 ± 0.02 µM. The inhibition at 10 µM (PI3Kα; PI3Kα, compound 10 μM, mean ± SD of three determinations, read-out: % Inhibition at 10 μM) was > 85%.
